Data on four compounds can be found in patent US20090306035A1, “Compounds and Methods for modulating the Silencing of a Polynucleotide of Interest” (Emory University, priority 2005, published 2009).

Holding throughout (assay type): cell-based
Experiment [1] deals with shRNA against Luciferase mRNA. The experiment can be described thus: GL-3 luciferase reporter transfected into cells expressing shRNA against Luciferase mRNA. Particulars: GL-3 luciferase plus shLuc, FIG. 5. The source says: In this example, a luciferase reporter construct GL-3 was transfected into the cells expressing shRNA against Luciferase mRNA.
Experiment [2] relates to siRNA-mediated mRNA degradation and gene knock-down (GFP siRNA). Put plainly: GFP reporter screen: 293 cells stably expressing GFP and an siRNA hairpin against GFP. The conditions noted are these: human 293 cells, GFP reporter with siRNA hairpin against GFP; Spectrum Collection screen. The procedure:
FIG. 2 discloses one embodiment of the cell-based reporter system of the invention. In this example, a human 293-cell line stably expressing a reporter gene, GFP, was used. This cell line was further transfected with a construct that expresses siRNA hairpin against GFP, which can decrease the level of GFP expression. Individual clones were isolated with greatly (although not completely) reduced GFP expression.
Using the above-identified clones, a screen was performed using The Spectrum Collection (MicroSource Discovery Systems, Inc., Gaylordsville, Conn., United States of America), which contains 2000 biologically active and structurally diverse compounds from libraries of known drugs, experimental bioactives, and pure natural products. For example, in one embodiment, a pilot screen of this library identified one inhibitor and one enhancer of siRNA-mediated mRNA degradation.
To identify the chemical compounds that modulate the siRNA and miRNA pathway, a screening strategy was used. A human 293-cell line stably expressing a reporter gene, GFP, was used. This cell line was further transfected with a construct that expresses siRNA hairpin against GFP, which could knock down the expression of GFP. […]

In experiment [3] the test system is miR-30a-3p. The experiment can be described thus: miRNA sensor (Luc-T30 reporter with miR-30a-3p target sites), dual luciferase assay of HepG2 cells. The conditions noted are these: reporter with miR-30 target sequence, endogenously expressed miR-30, FIG. 7. How it is done:
In FIG. 6, top left panel, the blue arrowheads in Luc-T30 indicate artificial target sequence against miR-30a-3p. Luc-AT30 has an artificial sequence complementary to that in Luc-T30. […] Relative luciferase activity was calculated by dividing the reporter (Firefly) luciferase activity with co-transfected Renilla luciferase activity. Luciferase activity was decreased by transfecting Luc-T30 in HepG2 (orange bars) without changes in the amount of its mRNA (blue bars). Error bars represent the standard deviation (SD) of three triplicate experiments. […] Error bars represent the standard deviation (SD) from three triplicate experiments. **P=0.004; *****P=0.00001.
This reporter contains the target sequence of miR-30. In the miR-30 system, the endogenously expressed miR-30 was used and, in this cell line, miR-30 has been processed completely. Thus, the addition of enoxacin had no effect.

Turning to `O=C(O)c1cn(C2CC2)c2cc(N3CCNCC3)c(F)cc2c1=O` [ciprofloxacin], the “knock-down efficiency of shRNA against luciferase mRNA (relative luciferase activity)” value is “enhance siRNA-mediated mRNA degradation” in experiment [1] and “increased the knock-down efficiency” in experiment [1] (listed as ciproflaxin). For `CCn1cc(C(=O)O)c(=O)c2cc(F)c(N3CCNCC3)nc21` [enoxacin], in experiment [2], the “effect on siRNA-mediated mRNA degradation and gene knock-down” value was “enhance siRNA-mediated mRNA degradation and gene knock-down”. Moreover, the miRNA-mediated translational suppression entry in experiment [3] is on record as “no effect”. In experiment [1], the “knock-down efficiency of shRNA against luciferase mRNA (relative luciferase activity)” value is reported as “increased the knock-down efficiency”. As to `COc1cc(C(=O)NCc2ccc(OCCN(C)C)cc2)cc(OC)c1OC` [RNAi-I], in experiment [3], the miRNA-mediated translational suppression entry was “released the miRNA-mediated translational suppression”.

In the case of `COc1cc(C(=O)NCc2ccc(OCCN(C)C)cc2)cc(OC)c1OC` [trimethobenzamide], in experiment [2], the “effect on siRNA-mediated mRNA degradation and gene knock-down” value was “inhibit siRNA-mediated mRNA degradation and gene knock-down”.
